Values after ≈ are worked out from the molar mass of the structure shown. Values joined by “and” are separate entries in the source; they are usually repeats but may differ in a detail not shown here. Equal values may be shown once.
Tests used:
bacteria = test: Microcalorimetry activity of Vanco-Bis-TCO-Glycine; format: cell-based; conditions: tested up to 64 μg/ml (32 μM), without activating gel
MRSA bacteria = test: In vitro calorimetry (MRSA) in presence and absence of TAG
[1] = Aqueous solubility of Example 13B under different buffer conditions
[2] = tested on: methicillin-resistant Staphylococcus Aureus SP231; test: Rat knee joint MRSA infection study; format: in vivo; conditions: rats; TAG (right knee) vs unmodified alginate control gel (left knee); prodrug via tail vein; 24 h; p<0.05
Experimental: Prodrug, TCO-Dapto was delivered systemically via tail vein. Mean±SEM of n=3, unpaired two-tailed Welch's t-test, *p<0.05.
Female Sprague-Dawley rats of age 6-8 weeks were approved for this study by the Institution of Animal Care and Use Committee (IACUC). Neutropenia was induced with cyclophosphamide intraperitoneally, 4 days (150 mg/kg) and 1 day (100 mg/kg) prior to gel injections. Animals received intra-articular injections of […] of 2.5% w/v of Cy5-modified alginate TAG (right knee) or unmodified alginate-Cy5 gel control (left knee) mixed with […] of 10^8 CFU/mL of methicillin-resistant Staphylococcus Aureus SP231 bacteria. After 2 h, animals received 61 μM of transcyclooctene-modified daptomycin-glycine (TCO-Dapto) via tail vein IV at standard dosing volume. After 24 h of gel injections, knee joints were harvested, homogenized and diluted in Dubelco's Phosphate buffered saline (D-PBS). Homogenized mixture was plated onto trypticase soy agar plates containing 5% sheep's blood duplicate. Bacterial colonies were enumerated following 20 h of incubation and bacterial load as LOG CFU/g of knee joint was determined. Statistical analysis was performed with Welch's two-tailed t-test and * denotes p<0.05. Error bars indicate standard error over means of n=3.

[3] = Phosphate Buffer pH 6.5, final pH 6.1
[4] = Phosphate Buffer pH 7.5, final pH 5.4

Row | SMILES | activity against bacteria as measured by microcalorimetry (bacteria) | MHIC in the absence of TAG relative to presence of TAG (MRSA bacteria) [×] | Solubility, Mean ([1]; Buffer: Water, final pH 3.4) [mg/mL] | Solubility, Value ([1]; Buffer: Water, final pH 3.4) | Solubility, Mean [1, 3] [mg/mL] | Solubility, Value [1, 3] | Solubility, Mean [1, 4] [mg/mL] | Solubility, Value [1, 4] | bacterial loading of harvested knee joint [2]
1 | CC(C)CC(C(=O)N[C@H]1C(=O)N[C@@H](CC(N)=O)C(=O)N[C@H]2C(=O)N[C@H]3C(=O)N[C@H](C(=O)N[C@H](C(=O)O)c4cc(O)cc(O)c4-c4cc3ccc4O)[C@H](O)c3ccc(c(Cl)c3)Oc3cc2cc(c3O[C@@H]2O[C@H](CO)[C@@H](O)[C@H](O)[C@H]2O[C@H]2C[C@](C)(NC(=O)O[C@@H]3/C=C/CC[C@](C)(C(=O)NCC(=O)O)CC3)[C@H](O)[C@H](C)O2)Oc2ccc(cc2Cl)[C@H]1O)N(C)C(=O)O[C@@H]1/C=C/CC[C@](C)(C(=O)NCC(=O)O)CC1 (stereo partly drawn) [Example 13C, Vanco-Bis-TCO-glycine Conjugate] | no activity | 8 | – | – | – | – | – | – | –
2 | CCCCCCCCCC(=O)NC(Cc1c[nH]c2ccccc12)C(=O)NC(CC(N)=O)C(=O)NC(CC(=O)O)C(=O)NC1C(=O)NCC(=O)NC(CCCNC(=O)OC2C=CCCC(C)(C(=O)NCC(=O)O)CC2)C(=O)NC(CC(=O)O)C(=O)NC(C)C(=O)NC(CC(=O)O)C(=O)NCC(=O)NC(CO)C(=O)NC(C(C)CC(=O)O)C(=O)NC(CC(=O)c2ccccc2N)C(=O)OC1C (stereo not drawn) [Example 13B, Dapto-TCO-Glycine] | – | – | 0.15 (≈ 0.0795 mM) | 0.15 mg/mL and 0.14 mg/mL | 10.9 (≈ 5.77 mM) | 10.8 mg/mL and 10.9 mg/mL | 38.3 (≈ 20.3 mM) | 38.1 mg/mL and 38.3 mg/mL | reduces MRSA infection in vivo in a knee joint

Reference: patent US12296017B2, “Bioorthogonal compositions” (TAMBO, INC., priority 2017, dated 2025)
